# Measurements as given in patent publication US8877773B2, “Methods for treating chronic obstructive pulmonary disease” (Indiana University Research and Technology Corporation, priority 2009, dated 2014).
# Entries after “also recorded” stand apart in the source; their conditions may differ.
# Assays:
# FG-7142 treated rats = assay: FG-7142-induced anxiety: open field, social interaction and elevated plus maze tests; format: in vivo, rat; conditions: Wistar rats
# Protocol: All experiments were conducted on adult male Wistar rats (250-300 g) purchased from Harlan Laboratories (Indianapolis, Ind. USA) and were housed individually in plastic cages under standard environmental conditions (22° C.; 12/12 light/dark cycle; lights on at 7:00 A.M.) for 7-10 days prior to the surgical manipulations. Food and water were provided ad libitum.
# The open-field arena covered an area of 90 cm×90 cm, with 40 cm high walls. The open-field arena was divided into a 6×6 grid of equally-sized squares using black tape (36 total squares) with 4 squares forming the centre; 12 squares forming the middle perimeter; and 20 squares forming the outer perimeter. The test started by placing a rat in the centre. The behavior of each rat in the open-field arena was recorded on video and scored afterwards by an observer blind to the experimental treatment of each rat. Time spent in each region of the open-field was recorded. In addition, locomotor activity was assessed by counting the number of times the rat's entire body (excluding tail) completely crossed into another square.
# Following the OFT, the experimental rat was placed in an open field (0.9 m long×0.9 m wide with walls 0.3 m high) with an untreated novel partner rat. A video camera was fixed above the box, and all behavioral tests were videotaped. During the 5 min test the total amount of time the treated rat initiates interaction with the partner rat is recorded (sniffing, grooming etc.) as described previously. Videotaped sessions were scored at a later time by a SDF (blind to treatments) and a decrease in total interaction time was taken as an increase in “anxiety” like behavior.
# Following the SI test, rats were place in the center area of the EPM where the two arms intersect. Unlike the SI test, the EPM measures many relevant anxiety related behaviors such as: no. of poke and full entries into and duration spent in closed versus open arm. […] Activity is measured using […] state of the art photobeams (16× beams and 16 Y beams) to provide the highest resolution system available (Automated EPM, Hamilton Kinder Scientific, San diego, CA).
# [1] = in vivo; cited from earlier work
# [2] = test system: panic-prone (1-AG treated) rats; assay: Sodium lactate (NaLac) challenge in panic-prone rats: radio-telemetry of locomotor and cardiovascular (HR, MAP) responses; format: in vivo, rat
# Protocol: Telemetry probes (Data Science International, St. Paul Minn.) were surgically implanted into the abdomen of anaesthetize rats to measure locomotor responses. Cardiovascular responses were measured by a femoral arterial line connected to the telemetric probe which contained a pressure transducer (Data Science International, St. Paul Minn.).
# The minipump was then sutured into place subcutaneously at the nape of the neck. The concentration of the solutions was such that 3.5 nmol/[…] per hour of 1-AG or d-AG was infused continuously into the DMH/PeF region for the remainder of the given experiment. In the case of the siRNA experiments specialized T-cannulae were implanted permitting access to a removable 28 g injector to direct siRNA injections to the same location as the 1-AG infusions. Additionally these rats had guide cannulae directed to the opposite DMH/PeF for bilateral infusion of siRNA.
# Rats received intravenous (i.v.) infusions (10 ml over 15 min of either 0.5M NaLac or 0.9% isotonic saline (when applicable)) using a syringe pump at least five days following the initiation of 1-AG or d-AG infusions. Once a stable baseline was achieved, i.v. infusions began and cardiovascular and activity data were recorded for 15 min (similar to clinical NaLac infusions).
# Cardiovascular responses (i.e., MAP and HR) were measured by a femoral arterial line connected to a telemetric probe which contained a pressure transducer (Cat. no. C50-PXT, Data Science International (DSI) St. Paul Minn.). […] MAP and HR were recorded continuously in freely moving conscious rats and are expressed as a 20 min time course. The data reported are changes in HR and MAP from the average of the baseline (t−5 to t−1) from each rat. […]
# In experiments 4-6, rats were made panic vulnerable with 1-AG. 5 days after 1-AG onset, in a counterbalanced design, rats received intraperitoneal (i.p.) injections of treatment drug or vehicle 30 min prior to i.v. infusions. […] In experiment 5, baseline in an open field (OF) behavior test of anxiety was assessed (n=8) prior to 1-AG infusions. […] Immediately following the NaLac challenge, rats were placed in the OF test. […] In experiment 6,1-AG treated rats received an injection of an alternative ORX1 receptor antagonist (30 mg/kg SB408124 (N-(6,8-Difluoro-2-methyl-4-quinolinyl)-N′-(4-(dimethylamino)phenyl)urea), Tocris, in 0.2 ml/100 g volume DMSO, n=4) or vehicle (0.2 ml/100 g volume DMSO, n=6) 30 min prior to NaLac. In experiment 7, control rats (no 1-AG or NaLac treatment) were assessed in a SI test.
# Adult male Sprague-Dawley rats were anesthetized and surgically implanted with telemetrical probes to measure cardiovascular activity prior to and during lactate infusions. After a 3 day recovery, rats were anaesthetized and had osmotic minipumps (previously filled with 1-AG) stereotaxically implanted unilaterally into the DMH. […] 1960, Tocris, in 0.2 ml/100 g volume DMSO, n=12], alprazolam (3 mg/kg, Sigma, in 0.2 ml/100 g volume DMSO, n=6) or vehicle (0.2 ml/100 g volume DMSO, n=11) 30 min prior lactate challenge.
# [3] = 30 mg/kg i.p., experiment 5 (open field cohort)
# [4] = i.p. 30 min prior to NaLac, SB334867/SB408124 30 mg/kg, alprazolam 3 mg/kg, experiments 4 and 6
smiles,measurement,setting,value
"Cc1nc2ccc(NC(=O)Nc3ccnc4cccnc34)cc2o1 [SB334867, N-(2-Methyl-6-benzoxazolyl)-N′-1,5-naphthyridin-4-yl urea]",time in open arms of elevated plus maze,"FG-7142 treated rats; FG-7142 7.5 mg/kg ip, with or without SB334867 30 mg/kg ip",higher time in open arms
same,FG-7142-induced anxiety behavior in the social interaction test,FG-7142 treated rats; SB334867 30 mg/kg ip followed by FG-7142 7.5 mg/kg ip,blocked
same,FG-7142 induced anxiety in the open field test,"FG-7142 treated rats; SB334867 30 mg/kg ip followed by FG-7142 7.5 mg/kg ip, 15 min after FG-7142",appeared to have attenuated
same,blood-brain barrier passage,[1],crosses the blood-brain barrier
same,NaLac induced increases in heart rate (HR),[2]; [3],attenuated
same,NaLac induced increases in mean arterial blood pressure (MAP),[2]; [3],attenuated
same,NaLac induced increases in heart rate (HR),[2]; [4],attenuated; also recorded: blocked
same,NaLac induced increases in mean arterial blood pressure (MAP),[2]; [4],attenuated; also recorded: blocked
